Test results reported in patent publication US8841299B2, “Substituted pyrrolo[1,2-a]pyrazines as tankyrase inhibitors” (Hoffman-La Roche Inc., priority 2012, dated 2014).

Columns and labels:
PARP1 = biological target: T1, PARP1 (Homo sapiens, UniProt P09874); test: μHTS-TNKS-IWR2 TR-FRET binding assay, PARP1 in place of TNKS1; conditions: His6-PARP1 (full length), Biotin-IWR2 60 nM
T1 construct: or His6-PARP1 (full length)
Protocol: (§1) μHTS-TNKS-IWR2 TR-FRET Binding Assay
(§2) (10 μL/well in BD1536-well plate, a single point)
(§3) Tankyrase 1 (TNKS1): 184.3 μM=5.2 mg/mL His6-TNKS1, MW=28.2 KDa (construct: 1088-1327, I266M) in 20 mM Tris pH 8, 150 mM NaCl, 10% glycerol, and 0.5 mM TCEP Alternatively, in place of His6-TNKS1 can use either His6-tankyrase 2 (construct: 934-1166) (His6-TNKS2) or His6-PARP1 (full length).
(§4) Biotin-IWR2: 10 mM Biotin-IWR2 stock in DMSO, stored at −20° C.
Positive control: 10 mM […] in DMSO, stored at −20° C.
(§5) Eu-Streptavidin: 38.1 μM (2.1 mg/mL) Eu-SA (Bio #Eu-2212, Lot #N 18001-BDHO2)
(§6) APC-anti-His Ab: 8.50 μM SL-APC, 8.26 μM anti-6His antibody-SureLight APC (Columia Bioscience, Cat #D3-1711, Lot #N01010-AAH04)
(§7) Assay plate: BD 1536-well, clear/black plate (Cat #353255)
(§8) Assay buffer 1a (AB1a) for TNKS dilution: 50 mM Tris, pH 7.4, 100 mM sodium chloride solution, 1 mM magnesium chloride solution, 1 mM DL-dithiothreitol solution, 0.2 mg/mL bovine serum albumin solution, 0.025% NP-40.
(§9) Assay buffer 1b (AB1b) for Biotin-IWR2 dilution: 50 mM Tris, pH 7.4, 100 mM sodium chloride solution, 1 mM magnesium chloride solution, 1 mM DL-dithiothreitol solution, 0.2 mg/mL bovine serum albumin solution, 0.05% NP-40
(§10) Assay buffer 1c (AB1c) for compound dilution: 50 mM Tris, pH 7.4, 100 mM sodium chloride solution, 1 mM magnesium chloride solution, 1 mM DL-dithiothreitol solution, 0.2 mg/mL bovine serum albumin solution
(§11) Assay buffer 2 (AB2) for Eu/APC: 50 mM Tris, pH 7.4, 100 mM sodium chloride solution, 1 mM magnesium chloride solution, 0.2 mg/mL bovine serum albumin solution
(§12) Prepare Biotinylated IWR2 stock solution (3.33× stock) for TOTL and cpd wells: 200 nM Biotin-IWR2 in 5% DMSO/AB1b buffer
(§13) Prepare BLANK well stock solution: 5% DMSO/AB1b buffer
(§14) Prepare POSITIVE CONTROL well stock solution (3.33× stock): 200 nM XAV939 in 200 nM Biotin-IWR2/5% DMSO/AB1b buffer
(§15) Prepare TNKS1 stock solution (5× stock): 300 nM TNKS in AB1a buffer
(§16) (Alternatively, use TNKS2 or PARP1 stock solutions.)
(§17) Prepare Eu/APC stock solution (5× stock): 3.5 nM Eu-SA/50 nM APC-His6Ab in AB2 buffer
(§18) Add 25 μL/well 1.5% DMSO/AB1c buffer in each compound well to the compound concentration at 74 μM in 8.8% DMSO/AB1c buffer or in the 2 μL DMSO CONTROL wells (BLANK, TOTAL and POSITIVE wells) in the compound plate.
(§19) Transfer 3 μL/well of above solution (solution 1, 2, 3) to an empty assay plate (BD1536-well plate) as follows:
(§20) TOTAL and cpd wells: Solution 1 (Biotin-IWR2):
(§21) BLANK wells: Solution 2 (No Biotin-IWR2):
(§22) POSITIVE CONTROL wells: Solution 3 (Biotin-IWR2+XAV939)
(§23) Transfer 3 μL/well of the above diluted compound solutions or compound dilution buffer to the above assay plate.
(§24) Add 2 μL/well of 300 nM TNKS stock solution (4) to every well in the above assay plate
(§25) Centrifuge the assay plate at 2100 rpm for 2 minutes.
(§26) Incubate the assay plate at 26° C. for 30 minutes.
(§27) Add 2 μL/well 3.5 nMEu/50 nM APC solution (5) to every well in the above assay plate.
(§28) Incubate the assay plate at 26° C. for 60 minutes.
(§29) Read the assay plate immediately at excitation wavelength of 330 nm and emission wavelength of […] in time resolved fluorescence mode.
(§30) General Library compounds: 22.23 μM in 4% DMSO

Tankyrase 1 (TNKS1) = biological target: T2, Tankyrase 1 (TNKS1) (Homo sapiens, UniProt O95271); test: μHTS-TNKS-IWR2 TR-FRET binding assay, TNKS1
T2 construct: His6-TNKS1, MW=28.2 KDa (construct: 1088-1327, I266M)
T2 sequence (O95271 1088-1327): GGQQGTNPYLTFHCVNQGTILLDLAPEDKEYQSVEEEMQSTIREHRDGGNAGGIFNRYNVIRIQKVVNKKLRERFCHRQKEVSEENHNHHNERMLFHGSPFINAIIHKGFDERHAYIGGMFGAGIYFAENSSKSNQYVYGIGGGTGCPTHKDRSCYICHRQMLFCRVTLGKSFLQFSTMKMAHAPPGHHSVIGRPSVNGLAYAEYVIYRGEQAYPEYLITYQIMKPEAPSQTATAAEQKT
Protocol: as §1, §2, §4, §8, §9, §10, §11, §13, §15, §19, §20, §21, §22, §23, §24, §25, §26, §27, §28

tankyrase 2 (TNKS2) = biological target: T3, tankyrase 2 (TNKS2) (Homo sapiens, UniProt Q9H2K2); test: μHTS-TNKS-IWR2 TR-FRET binding assay, TNKS2 in place of TNKS1; conditions: His6-TNKS2 (construct 934-1166), Biotin-IWR2 60 nM
T3 construct: His6-tankyrase 2 (construct: 934-1166) (His6-TNKS2)
T3 sequence (Q9H2K2 934-1166): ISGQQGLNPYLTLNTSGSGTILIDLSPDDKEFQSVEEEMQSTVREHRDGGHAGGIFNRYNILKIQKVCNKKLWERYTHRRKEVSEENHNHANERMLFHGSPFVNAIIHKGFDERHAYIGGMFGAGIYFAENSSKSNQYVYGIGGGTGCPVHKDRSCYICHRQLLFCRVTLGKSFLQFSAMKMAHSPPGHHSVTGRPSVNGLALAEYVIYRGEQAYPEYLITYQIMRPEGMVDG
Protocol: as §1, §2, §3, §4
Positive control: 10 mM XAV 939 in DMSO, stored at −20° C.
as §5, §6, §7, §8, §9, §10, §11, §12, §13, §14, §15, §16, §17, §18, §19, §20, §21, §22, §23, §24, §25, §26, §27, §28, §29
XAV939 (+ve control): 60 nM at ˜70% Inhibition
as §30

T1 sequence (P09874 whole entry): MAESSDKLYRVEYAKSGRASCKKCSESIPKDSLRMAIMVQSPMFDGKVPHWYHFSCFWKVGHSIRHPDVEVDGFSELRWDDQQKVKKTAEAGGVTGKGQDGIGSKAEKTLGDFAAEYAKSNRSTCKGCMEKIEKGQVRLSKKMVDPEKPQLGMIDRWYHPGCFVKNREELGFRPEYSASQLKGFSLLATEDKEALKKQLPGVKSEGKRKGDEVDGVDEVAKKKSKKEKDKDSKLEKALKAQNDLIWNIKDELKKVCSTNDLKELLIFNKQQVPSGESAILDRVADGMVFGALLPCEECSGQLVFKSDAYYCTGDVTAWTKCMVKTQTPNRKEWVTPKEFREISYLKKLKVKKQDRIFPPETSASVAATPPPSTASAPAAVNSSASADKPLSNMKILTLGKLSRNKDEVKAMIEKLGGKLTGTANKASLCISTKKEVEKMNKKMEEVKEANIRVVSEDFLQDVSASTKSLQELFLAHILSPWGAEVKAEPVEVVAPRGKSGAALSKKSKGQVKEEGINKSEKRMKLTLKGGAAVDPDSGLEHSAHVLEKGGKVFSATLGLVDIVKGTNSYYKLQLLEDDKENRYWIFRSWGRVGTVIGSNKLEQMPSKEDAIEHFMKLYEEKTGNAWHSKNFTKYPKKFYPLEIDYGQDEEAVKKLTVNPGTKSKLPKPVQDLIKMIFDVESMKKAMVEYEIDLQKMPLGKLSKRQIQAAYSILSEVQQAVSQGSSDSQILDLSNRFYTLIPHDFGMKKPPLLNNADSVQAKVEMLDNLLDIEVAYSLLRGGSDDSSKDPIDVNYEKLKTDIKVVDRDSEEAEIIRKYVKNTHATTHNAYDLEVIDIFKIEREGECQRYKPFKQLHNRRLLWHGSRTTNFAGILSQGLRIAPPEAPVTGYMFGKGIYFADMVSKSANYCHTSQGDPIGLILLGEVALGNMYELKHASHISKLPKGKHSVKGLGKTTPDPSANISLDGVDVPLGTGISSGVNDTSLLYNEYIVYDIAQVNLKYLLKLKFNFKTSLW

IC50 (PARP1) [nM] | IC50 (Tankyrase 1 (TNKS1)) [nM] | IC50 (tankyrase 2 (TNKS2)) [nM] | SMILES
> 50000 | 54 | 145 | COc1ccc(-c2cn3c(Br)ccc3c(=O)[nH]2)cc1 [Example 1, 6-Bromo-3-(4-methoxy-phenyl)-2H-pyrrolo[1,2-a]pyrazin-1-one]
34900 | 1110 | 1840 | O=c1[nH]c(-c2ccc(C(F)(F)F)cc2)cn2c(C3=NCCN3)ccc12 [Example 6, 6-(4,5-Dihydro-1H-imidazol-2-yl)-3-(4-trifluoromethyl-phenyl)-2H-pyrrolo[1,2-a]pyrazin-1-one]
11400 | 17 | 715 | O=c1[nH]c(-c2ccc(C(F)(F)F)cc2)cn2c(CO)ccc12 [Example 8, 6-Hydroxymethyl-3-(4-trifluoromethyl-phenyl)-2H-pyrrolo[1,2-a]pyrazin-1-one]
> 50000 | 192 | 1260 | N/C(=N\O)c1ccc2c(=O)[nH]c(-c3ccc(C(F)(F)F)cc3)cn12 [Example 3, N-Hydroxy-1-oxo-3-(4-trifluoromethyl-phenyl)-1,2-dihydro-pyrrolo[1,2-a]pyrazine-6-carboxamidine]
2740 | 68 | 68 | Cc1ccc2c(=O)[nH]c(N3CCN(c4ccccc4F)CC3)cn12 [Example 9, 3-[4-(2-Fluoro-phenyl)-piperazin-1-yl]-6-methyl-2H-pyrrolo[1,2-a]pyrazin-1-one]
> 50000 | 6790 | 12700 | N=C(N)c1ccc2c(=O)[nH]c(-c3ccc(C(F)(F)F)cc3)cn12 [Example 5, 1-Oxo-3-(4-trifluoromethyl-phenyl)-1,2-dihydro-pyrrolo[1,2-a]pyrazine-6-carboxamidine]
172 | 32 | 72 | Cc1ccc2c(=O)[nH]c(-c3ccc(C(F)(F)F)cc3)cn12 [Example 7, 6-Methyl-3-(4-trifluoromethyl-phenyl)-2H-pyrrolo[1,2-a]pyrazin-1-one]
31200 | 232 | 995 | N#Cc1ccc2c(=O)[nH]c(-c3ccc(C(F)(F)F)cc3)cn12 [Example 2, 1-Oxo-3-(4-trifluoromethyl-phenyl)-1,2-dihydro-pyrrolo[1,2-a]pyrazine-6-carbonitrile]
1250 | 56 | 158 | O=c1[nH]c(-c2ccc(C(F)(F)F)cc2)cn2c(Br)ccc12 [Example 10, 6-Bromo-3-(4-trifluoromethyl-phenyl)-2H-pyrrolo[1,2-a]pyrazin-1-one]
29500 | 770 | 1900 | NC(=O)c1ccc2c(=O)[nH]c(-c3ccc(C(F)(F)F)cc3)cn12 [Example 4, 1-Oxo-3-(4-trifluoromethyl-phenyl)-1,2-dihydro-pyrrolo[1,2-a]pyrazine-6-carboxylic acid amide]
